One data set deals with hERG. As to the kind of experiment: Two-electrode voltage clamp, hERG in X. laevis oocytes. Type of data set: cell-based. Particulars: 10 μM, 18–22 °C, n ≥ 3. On the procedure: (§1) For the expression of the voltage-gated potassium channels (rKv1.1, rKv1.2, hKv1.3, rKv1.4, rKv1.5, rKv1.6, Shaker IR and hERG) in X. laevis oocytes, the linearized plasmids were transcribed using the T7 or SP6 mMESSAGE-mMACHINE transcription kit (Ambion, USA). The harvesting of stage V–VI oocytes from an anaesthetized female X. laevis frog was previously described. Oocytes were injected with 50 nl of cRNA at a concentration of 1 ng/nl using a micro-injector (Drummond Scientific, USA). The oocytes were incubated in a solution containing (in mM): NaCl, 96; KCl, 2; CaCl2, 1.8; MgCl2, 2; HEPES, 5 (pH 7.4), supplemented with 50 mg/l gentamycin sulfate.
(§2) Two-electrode voltage-clamp recordings were performed at room temperature (18–22 °C) using a Geneclamp 500 amplifier (Molecular Devices, USA) controlled by a pClamp data acquisition system (Axon Instruments, USA), as described in[47]. Whole cell currents from oocytes were recorded 1–4 days after injection. Bath solution composition was ND96 (in mM): NaCl, 96; KCl, 2; CaCl2, 1.8; MgCl2, 2 and HEPES, 5 (pH 7.4). Voltage and current electrodes were filled with 3 M KCl. The resistances of both electrodes were kept between 0.7 and 1.5 MΩ. […] All data were analysed using pClamp Clampfit 10.0 (Molecular Devices, Downingtown, PA, USA) and Origin 7.5 software (Originlab, Northampton, MA, USA).

Another data set has as its system pancreatic kallikrein. Briefly: SPR interaction with pancreatic kallikrein. Type of data set: binding. Particulars: for SPR binding to kallikrein (in words): peptide immobilized on CM4 chip. On the procedure: (§3) The interaction of the peptides with serine proteinases (trypsin, α-chymotrypsin, human neutrophil elastase, pancreatic kallikrein and cathepsin G) was studied using the surface plasmon resonance (SPR) method. The peptides were immobilized on a CM4 sensor chip. […] Kinetic parameters were calculated at 25 °C. Obtained data indicated the formation of tight complexes and eliminated non-specific binding (Table 2).
(§4) The study of the interaction of serine proteinases with rHCIQ2c1 and rHCIQ4c7 was performed on SPR biosensor Biacore 3000 (GE Healthcare, USA) running under the program “Biacore 3000 Control Software v.1.0”. The evaluation of data was carried out using “Biacore Evaluation v.4.1”. Peptides were covalent immobilized on carboxymethylated surface of the Biacore CM4 sensor chip (GE Healthcare, USA) activated by EDC/NHS (N-hydroxysuccinimide/1-ethyl-3-(3-dimethylaminopropyl)carbodiimide hydrochloride) mixture by the injection of peptide solution (100 µg/ml) in 10 mM sodium acetate (pH 5.5) during 10 min with flow rate 5 µl/min. Quantities of immobilized peptides were 970 RU (resonance units, 1 RU corresponds 1 pg peptide) for rHCIQ2c1 and 460 RU for rHCIQ4c7. In all of the experiments, the flow cell 1 (Fc1) without the immobilized polypeptides was considered as the reference cell for the correction of the signal responses. HBS (HEPES buffered saline-NaCl): 0.15 M NaCl, 0.01 M HEPES, pH 7.4 (cat. no. BR-1003-69, GE Healthcare, USA) was used as the running buffer for the SPR assays. Protease solutions at concentrations from 1 nM to 5 μM were passed through measuring and control biosensor cells at 25 °C during 5 min with a flow rate 5 µl/min. Further complex breakdown was recorded during at most 10 min. After each cycle of SPR measurement, the sensing surface was regenerated by the injection of 50 mM NaOH for 0.5 min at a flow rate of 50 μl/min. Changes in Gibbs free energy (ΔG) at 25 °C were calculated by the following equation:1 ΔG=RTlnKD, where KD is the dissociation constant. Changes in enthalpy (ΔH) and entropic term (−TΔS) were calculated from the linear equation:2 ΔG=ΔH−TΔS, using the liner approximation of temperature dependence of ΔG (Van’t Hoff diagram).
A general note: Surface plasmon resonance follows binding to a sensor surface in real time, without labels.

The subject of a further data set is α-chymotrypsin. Briefly: SPR interaction with α-chymotrypsin. The following applies: for SPR binding to α-chymotrypsin (in words): peptide immobilized on CM4 chip. Type of data set: binding. Here is the method: as §3, §4
The next data set concerns cathepsin G. Briefly: SPR interaction with cathepsin G. Type of data set: binding. Particulars: for SPR binding to cathepsin G (in words): peptide immobilized on CM4 chip. On the procedure:
as §3, §4

Another data set relates to rKv1.1. As to the kind of experiment: Two-electrode voltage clamp, rKv1.1 in X. laevis oocytes. Type of data set: cell-based. Particulars: 10 μM, 18–22 °C, n ≥ 3. On the procedure:
as §1, §2
On the technique in general: In two-electrode clamp one electrode senses voltage and the other passes current.

In a further data set the test system is Shaker IR. Briefly: Two-electrode voltage clamp, Shaker IR in X. laevis oocytes. Type of data set: cell-based, Drosophila. Particulars: 10 μM, 18–22 °C, n ≥ 3. On the procedure:
as §1, §2

A further data set deals with rKv1.4. Briefly: Two-electrode voltage clamp, rKv1.4 in X. laevis oocytes. Particulars: 10 μM, 18–22 °C, n ≥ 3. Type of data set: cell-based. On the procedure:
as §1, §2

A further data set relates to rKv1.2. As to the kind of experiment: Two-electrode voltage clamp, rKv1.2 in X. laevis oocytes. The following applies: 10 μM, 18–22 °C, n ≥ 3. Type of data set: cell-based. On the procedure:
as §1, §2

For another data set, the system named is trypsin. As to the kind of experiment: SPR interaction with trypsin. Type of data set: binding. The following applies: for SPR binding to trypsin (in words): peptide immobilized on CM4 chip; for ka, association rate constant / kd, dissociation rate constant: protease 1 nM to 5 μM; for Kd: read-out: KD, dissociation constant. On the procedure:
as §3, §4

The mark [1] stands for this setting: kallikrein, SPR Biacore 3000, peptide immobilized on CM4 chip, HBS pH 7.4, 25 °C, protease 1 nM to 5 μM.
[2] abbreviates: α-chymotrypsin, SPR Biacore 3000, peptide immobilized on CM4 chip, HBS pH 7.4, 25 °C, protease 1 nM to 5 μM.
[3] abbreviates: cathepsin G, SPR Biacore 3000, peptide immobilized on CM4 chip, HBS pH 7.4, 25 °C, protease 1 nM to 5 μM.
[4] abbreviates: trypsin, SPR Biacore 3000, peptide immobilized on CM4 chip, HBS pH 7.4, 25 °C.

No end group written: not given here.

As for “rHCIQ2c1: recombinant Kunitz-peptide of Heteractis crispa, most prevalent isoform, mature peptide 58 aa, expressed in E. coli (IQGNICSEPKKVGRCRGSFPRFYFDSETGKCTPFIYGGCGGNGNNFETLHACRAICRA; ends and bridges not checked; cysteine pairing not given here)”, in the data set on hERG, the “Activity on hERG” value is “neither 10 μM of rHCIQ2c1 nor rHCIQ4c7 exerted any activity on the Kv channels”. In addition, the “SPR binding to kallikrein (in words)” value in the data set with pancreatic kallikrein is “specifically binds to all target proteinases”. Also, the “KA, association constant” value in the data set with pancreatic kallikrein (kallikrein, SPR Biacore 3000, peptide immobilized on CM4 chip, HBS pH 7.4, 25 °C) was found to be 2.04e+06 M⁻¹; in the data set with α-chymotrypsin (α-chymotrypsin, SPR Biacore 3000, peptide immobilized on CM4 chip, HBS pH 7.4, 25 °C) it was 1.03e+07 M⁻¹; in the data set with cathepsin G (cathepsin G, SPR Biacore 3000, peptide immobilized on CM4 chip, HBS pH 7.4, 25 °C), 3.58e+09 M⁻¹. Also, the “ka, association rate constant” value in the data set with pancreatic kallikrein (setting [1]) came to 49400 s/M; in the data set with α-chymotrypsin (setting [2]), 76900 s/M; with cathepsin G (setting [3]), 1.29e+06 s/M; with trypsin (setting [4]) it was 20500 s/M. The “kd, dissociation rate constant” value in the data set with pancreatic kallikrein (setting [1]) was 0.00379 s⁻¹; in the data set with α-chymotrypsin (setting [2]), 0.00749 s⁻¹; with cathepsin G (setting [3]), 0.000359 s⁻¹; with trypsin (setting [4]) it was 0.00817 s⁻¹. Also, the “SPR binding to α-chymotrypsin (in words)” value with α-chymotrypsin was “specifically binds to all target proteinases”. Moreover, the Kd on α-chymotrypsin (α-chymotrypsin, SPR Biacore 3000, peptide immobilized on CM4 chip, HBS pH 7.4, 25 °C, read-out: KD, dissociation constant) is 97.4 nM; on cathepsin G (cathepsin G, SPR Biacore 3000, peptide immobilized on CM4 chip, HBS pH 7.4, 25 °C, read-out: KD, dissociation constant) it was 0.279 nM; on trypsin (setting [4]) it was 0.251 nM. The “SPR binding to cathepsin G (in words)” value in the data set with cathepsin G is on record as “specifically binds to all target proteinases”. In the data set on rKv1.1, the “Activity on Kv1.1” value is reported as “neither 10 μM of rHCIQ2c1 nor rHCIQ4c7 exerted any activity on the Kv channels”. For the same substance, the “Activity on Shaker IR” value with Shaker IR is on record as “neither 10 μM of rHCIQ2c1 nor rHCIQ4c7 exerted any activity on the Kv channels”. In addition, the “Activity on Kv1.4” value in the data set with rKv1.4 is on record as “neither 10 μM of rHCIQ2c1 nor rHCIQ4c7 exerted any activity on the Kv channels”. For the same substance, the “Activity on Kv1.2” value with rKv1.2 is “neither 10 μM of rHCIQ2c1 nor rHCIQ4c7 exerted any activity on the Kv channels”. In the data set with trypsin (SPR), the “SPR binding to trypsin (in words)” value is on record as “specifically binds to all target proteinases”.
For the substance “rHCIQ4c7: recombinant Kunitz-peptide of Heteractis crispa, isoform with the rare substitution Gly17Glu”, in the data set with hERG, the “Activity on hERG” value is on record as “neither 10 μM of rHCIQ2c1 nor rHCIQ4c7 exerted any activity on the Kv channels”. The “SPR binding to kallikrein (in words)” value in the data set on pancreatic kallikrein was “bounds to trypsin and elastase only”. Besides, the “SPR binding to α-chymotrypsin (in words)” value in the data set on α-chymotrypsin was “bounds to trypsin and elastase only”. Also, the “SPR binding to cathepsin G (in words)” value in the data set on cathepsin G is “bounds to trypsin and elastase only”. In the data set with rKv1.1, the “Activity on Kv1.1” value is “neither 10 μM of rHCIQ2c1 nor rHCIQ4c7 exerted any activity on the Kv channels”. The “Activity on Shaker IR” value in the data set on Shaker IR is on record as “neither 10 μM of rHCIQ2c1 nor rHCIQ4c7 exerted any activity on the Kv channels”. For the same substance, the “Activity on Kv1.4” value with rKv1.4 is listed as “neither 10 μM of rHCIQ2c1 nor rHCIQ4c7 exerted any activity on the Kv channels”. For the same substance, the “Activity on Kv1.2” value with rKv1.2 is “neither 10 μM of rHCIQ2c1 nor rHCIQ4c7 exerted any activity on the Kv channels”. Also, the “KD with trypsin relative to rHCIQ2c1” value on trypsin (SPR, 25 °C) was “higher by three orders than for rHCIQ2c1”. Besides, the “SPR binding to trypsin (in words)” value in the data set with trypsin (SPR) is “bounds to trypsin and elastase only”. Further, in the data set with trypsin (setting [4]), the “KA, association constant” value stood at 4.83e+06 M⁻¹; the “ka, association rate constant” value amounted to 22500 s/M; the “kd, dissociation rate constant” value stood at 0.00466 s⁻¹; the Kd turned out to be 207 nM.

What is called Kd is the constant that tells how readily two partners part at equilibrium.

(Values after article PMC7060258 (Scientific Reports, 2020).)
